Measured values as given in patent US10441654B2 (priority 2014, dated 2019).
Entries after “also recorded” stand apart in the source; their conditions may differ.

Columns and labels:
[1] = test system: EMT6 cells; format: cell-based, mouse
[2] = test system: TRAIL and TNFα; format: cell-based, human
[3] = test system: interferon stimulated gene (ISG) expression; format: cell-based; conditions: cells treated with VSVΔ51 and SMC, 20 hours
[4] = test system: EMT6 mammary carcinoma; conditions: mouse, in vivo
[5] = test system: SNB75 cells; test: cells; format: cell-based; conditions: Homo sapiens, SNB-75, read-out: EC50 of SMC therapy
[6] = mouse, in vivo
[7] = test system: TNFα; format: cell-based, mouse
[8] = test system: cancer cells; format: cell-based
[9] = test system: CT-2A intracranial tumors; conditions: mouse, in vivo
[10] = test system: cIAP1/2; test: cIAP1/2 knockdown in EMT6 tumors (western blotting); format: in vivo, mouse; conditions: 50 mg/kg oral gavage
[11] = test system: VSVΔ51; format: cell-based
[12] = test system: CT-26 mouse colon carcinoma; conditions: in vivo
[13] = test system: IFNβ; format: cell-based
[14] = test system: VSVΔ51; conditions: mouse, 50 mg/kg
[15] = test system: 786-0 cells; format: cell-based
[16] = test system: cancer cell lines (n=28); format: cell-based
[17] = test system: Jak/Stat signalling downstream of IFNβ; format: cell-based
[18] = test system: CT-2A, K1580 glioblastoma cells; format: cell-based, mouse
[19] = mouse, in vivo; remark: listed apart in the source
[20] = test system: TNFα; conditions: mouse, in vivo, ip
[21] = test system: TNFα; conditions: mouse, in vivo, ip; remark: listed apart in the source
[22] = test system: cancer cells; format: cell-based; remark: listed apart in the source

CC(C)Cn1cnc2c(N)nc3ccccc3c21 [imiquimod]
bystander death of SMC treated EMT6 cells [1]: required splenocytes

CN[C@@H](C)C(=O)N[C@H](C(=O)N1CCC[C@H]1c1nc(C(=O)c2ccc(F)cc2)cs1)C1CCCCC1 [LCL161]
induction of TRAIL and TNFα by IFNβ [2]: potentiated
ISG gene expression in response to oncolytic VSV infection [3]: no bearing
cure rate [4]: 17%
tumor growth and survival [4]: decrease in the rate of tumor growth and a modest extension in survival; also recorded: slightly extended mouse survival
tumor growth rates and survival [4]: slightly delayed EMT6 tumor growth rates and slightly extended the survival
EC50 [5]: > 2500 nM
tolerability [6]: well tolerated
weight loss ([6]; po, 50 mg/kg): minimal transient weight loss
cellular production of TNFα upon VSV infection [7]: 5- to 7 fold percentage increase
synergy with VSVΔ51 to cause cancer cell death [8]: synergize
neurotoxicity [9]: did not result in any overt neurotoxicity
duration of cIAP1/2 knockdown in tumors [10]: at least 24 hrs
duration of cIAP1/2 knockdown in tumors, in some cases [10]: 48 to 72 h
VSVΔ51 infectivity in or spread through tumor cells [11]: does not alter
growth kinetics of VSVΔ51 [11]: does not affect the growth kinetics
tumor growth rate and survival [12]: modest decrease of the tumor growth rate and a slight extension of survival
IFNβ secretion [13]: slightly lower levels
viral replication and spread in vivo [14]: No differences in viral kinetics
cell death outside of the zone of virus infection [15]: dramatic cell death
cancer cell lines in which SMC treatment enhanced sensitivity to VSVΔ51 [16]: 54%
enhanced sensitivity: EC50 of VSVΔ51 upon SMC treatment [16]: 10-10,000 fold
activation of Jak/Stat signalling downstream of IFNβ [17]: do not alter

poly(I:C)
tumor growth [4]: no bearing on tumor growth
glioblastoma cell death by brain lysates of treated mice in the presence of SMCs [18]: enhanced cell death in the presence of SMCs
toxicity of direct intracranial administration [19]: without overt toxicities
TNFα levels from the brain [20]: marked up-regulation of TNFα levels
bystander death of SMC treated EMT6 cells [1]: led to EMT6 cell death directly
TNFα in serum [21]: robust expression of TNFα

IFNα
tumor growth and survival [4]: no effect on EMT6 tumor growth or overall survival
synergy with SMC recapitulated by recombinant cytokine [22]: recapitulated
neurotoxicity [9]: did not result in any overt neurotoxicity

SM-164
synergy with VSVΔ51 to cause cancer cell death [8]: synergize

IFNγ
synergy with SMC recapitulated by recombinant cytokine [22]: recapitulated
